Data as given in patent US20230203098A1, “HUMAN TRANSFERRIN RECEPTOR BINDING PEPTIDE” (priority 2020, published 2023).
Where two headings read alike, the source gives them in different places. One block for each compound: values may come before it. Where a SMILES comes first, the peptide text is derived from it. Bridges are numbered along the chain shown (N, C = ends). [ ]: non-standard residue; d: D form. Trp(1-CH2COOH) = N[C@@H](Cc1cn(CC(=O)O)c2ccccc12)C(=O)O; PEG12 = NCCOCCOCCOCCOCCOCCOCCOCCOCCOCCOCCOCCOCCC(=O)O; NMePhe(3-Cl) = CN[C@@H](Cc1cccc(Cl)c1)C(=O)O; NMeY = CN[C@@H](Cc1ccc(O)cc1)C(=O)O; NMeF = CN[C@@H](Cc1ccccc1)C(=O)O; Aad = N[C@@H](CCCC(=O)O)C(=O)O; hLys = NCCCCC[C@H](N)C(=O)O; Abu = CC[C@H](N)C(=O)O

Target: transferrin receptor (hTfR) (Homo sapiens, UniProt P02786)
Sequence (P02786 whole entry): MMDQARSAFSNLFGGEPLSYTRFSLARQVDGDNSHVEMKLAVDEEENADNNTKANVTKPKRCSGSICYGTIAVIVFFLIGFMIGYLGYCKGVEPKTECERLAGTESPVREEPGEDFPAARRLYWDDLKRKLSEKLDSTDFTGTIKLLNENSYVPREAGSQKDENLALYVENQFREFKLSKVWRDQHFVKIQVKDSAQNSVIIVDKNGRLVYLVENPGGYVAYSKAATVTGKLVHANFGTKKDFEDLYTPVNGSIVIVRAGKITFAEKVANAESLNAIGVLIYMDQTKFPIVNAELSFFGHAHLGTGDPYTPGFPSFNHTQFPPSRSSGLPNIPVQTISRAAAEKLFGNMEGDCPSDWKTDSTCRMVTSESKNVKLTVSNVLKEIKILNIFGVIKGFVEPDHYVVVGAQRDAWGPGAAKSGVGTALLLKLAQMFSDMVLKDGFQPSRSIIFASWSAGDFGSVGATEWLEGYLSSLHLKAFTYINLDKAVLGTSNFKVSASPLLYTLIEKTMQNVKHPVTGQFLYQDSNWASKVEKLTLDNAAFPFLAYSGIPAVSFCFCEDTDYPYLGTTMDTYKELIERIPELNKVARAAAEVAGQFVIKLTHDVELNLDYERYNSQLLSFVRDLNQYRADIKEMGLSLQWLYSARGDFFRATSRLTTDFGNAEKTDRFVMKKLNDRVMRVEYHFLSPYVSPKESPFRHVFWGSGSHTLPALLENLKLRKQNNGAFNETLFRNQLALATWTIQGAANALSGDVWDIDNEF
Assay: Intermolecular interaction evaluation test between transferrin receptor (hTfR) and peptide by surface plasmon resonance (SPR)
Assay type: binding
How it was run: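 hTfR captured on Ni-NTA chip then amine-coupled; peptides run single-cycle kinetics at 5–100 nM in 10 mM HEPES pH 8.0, 150 mM NaCl, 0.05% Tween 20, 0.1% BSA, 1.0% DMSO. KD from least-squares curve fitting of sensorgrams.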

[1] = SPR, linker and payload (FITC, VivoTag) conjugates, read-out: KD
[2] = hTfR binding by SPR, hTfR No. 894 variant peptides, linker-added peptides and payload conjugates (Table 2), read-out: KD value obtained from the SPR measurement
[3] = SPR, hTfR No. 894 variants with PEG12c linker (Table 2), read-out: KD
[4] = surface plasmon resonance, hTfR, read-out: KD value for hTfR by SPR (class symbol)
[5] = SPR, hTfR, class symbols A-D, read-out: KD (column without head, continuation of the table series)

- Kd [1]: 1 to 100 nM
Structure (SMILES): CC[C@H](C)[C@@H]1NC(=O)[C@H](Cc2ccc(O)cc2)NC(=O)[C@H](Cc2ccc(O)cc2)NC(=O)[C@H](CC(N)=O)NC(=O)[C@H](Cc2c[nH]c3ccccc23)NC(=O)[C@H](C(C)C)NC(=O)[C@H](Cc2ccccc2)NC(=O)[C@H](C(C)C)NC(=O)[C@H](C)N(C)C(=O)CSC[C@@H](C(=O)NCCOCCOCCOCCOCCC(=O)N[C@@H](CNC(=O)c2ccc(-c3c4ccc(=O)cc-4oc4cc(O)ccc34)c(C(=O)O)c2)C(N)=O)NC(=O)[C@H](Cc2ccc(O)cc2)N(C)C(=O)[C@H](Cc2ccc(O)cc2)NC(=O)[C@H](CCCNC(=N)N)NC(=O)[C@H](CCCNC(=N)N)NC(=O)[C@H]([C@@H](C)CC)NC1=O [compound 161]

- Kd [1]: 1 to 100 nM
Structure (SMILES): CC[C@H](C)[C@@H]1NC(=O)[C@H](Cc2ccc(O)cc2)NC(=O)[C@H](Cc2ccc(O)cc2)NC(=O)[C@H](CC(N)=O)NC(=O)[C@H](Cc2c[nH]c3ccccc23)NC(=O)[C@H](C(C)C)NC(=O)[C@H](Cc2ccccc2)NC(=O)[C@H](C(C)C)NC(=O)[C@H](C)NC(=O)CSC[C@H](C(=O)NCCOCCOCCOCCOCCC(=O)N[C@@H](CNC(=O)c2ccc(-c3c4ccc(=O)cc-4oc4cc(O)ccc34)c(C(=O)O)c2)C(N)=O)NC(=O)[C@H](Cc2ccc(O)cc2)N(C)C(=O)[C@H](Cc2ccc(O)cc2)NC(=O)[C@H](CCCNC(=N)N)NC(=O)[C@H](CCCNC(=N)N)NC(=O)[C@H]([C@@H](C)CC)NC1=O [compound 160]

Structure (SMILES): CC[C@H](C)[C@@H]1NC(=O)[C@H](Cc2ccc(O)cc2)NC(=O)[C@H](Cc2ccc(O)cc2)NC(=O)[C@H](CC(N)=O)NC(=O)[C@H](Cc2c[nH]c3ccccc23)N(C)C(=O)[C@H](C(C)C)NC(=O)[C@H](Cc2ccccc2)N(C)C(=O)[C@H](C(C)C)NC(=O)[C@H](C)NC(=O)CSC[C@@H](C(=O)NCC(=O)NCC(=O)N[C@@H](CCCNC(=N)N)C(=O)N[C@@H](CO)C(=O)N[C@@H](CCC(=O)O)C(=O)N[C@@H](CO)C(=O)N[C@@H](CCCCNC(=O)C2CCC(CN3C(=O)C=CC3=O)CC2)C(N)=O)NC(=O)[C@H](Cc2ccc(O)cc2)N(C)C(=O)[C@H](Cc2ccc(O)cc2)NC(=O)[C@H](CCCNC(=N)N)NC(=O)[C@H](CCCNC(=N)N)NC(=O)[C@H]([C@@H](C)CC)NC1=O (some centres unmarked) [compound 199]
- Kd [2]: 1 to 100 nM

- Kd (binding to hTfR by SPR, Table 2 peptides, read-out: KD value (SPR) class): < 1 nM
Structure (SMILES): CC[C@H](C)[C@@H]1NC(=O)[C@H](Cc2ccc(O)cc2)NC(=O)[C@H](Cc2ccc(O)cc2)NC(=O)[C@H](CC(N)=O)NC(=O)[C@H](Cc2c[nH]c3ccccc23)NC(=O)[C@H](C(C)C)NC(=O)[C@H](Cc2ccccc2)NC(=O)[C@H](C(C)C)NC(=O)[C@H](C)NC(=O)CSC[C@@H](C(N)=O)NC(=O)[C@H](Cc2ccc(O)cc2)N(C)C(=O)[C@H](Cc2ccc(O)cc2)NC(=O)[C@H](CCCNC(=N)N)NC(=O)[C@H](CCCCN)NC(=O)[C@H]([C@@H](C)CC)NC1=O [compound 255]

- Kd [3]: 1 to 100 nM
Structure (SMILES): CC[C@@H]1NC(=O)CSC[C@@H](C(=O)NCCOCCOCCOCCOCCOCCOCCOCCOCCOCCOCCOCCOCCC(N)=O)NC(=O)[C@H](Cc2ccc(O)cc2)N(C)C(=O)[C@H](Cc2ccc(O)cc2)NC(=O)[C@H](CCCNC(=N)N)NC(=O)[C@H](CCCNC(=N)N)NC(=O)[C@H]([C@@H](C)CC)NC(=O)[C@H]([C@@H](C)CC)NC(=O)[C@H](Cc2ccc(O)cc2)NC(=O)[C@H](Cc2ccc(O)cc2)NC(=O)[C@H](CC(N)=O)NC(=O)[C@H](Cc2c[nH]c3ccccc23)NC(=O)[C@H](C(C)C)NC(=O)[C@H](Cc2ccccc2)N(C)C(=O)[C@H](C(C)C)NC1=O [compound 111] ({CH2CO}-[Abu]V[NMeF]VWNYYIIRRY[NMeY]C[PEG12]-NH2; thioether N-15)

- Kd [4]: 1 to 100 nM
Structure (SMILES): CC[C@H](C)[C@@H]1NC(=O)[C@H](Cc2ccc(OC)cc2)NC(=O)[C@H](Cc2ccc(O)cc2)NC(=O)[C@H](CC(N)=O)NC(=O)[C@H](Cc2c[nH]c3ccccc23)N(C)C(=O)[C@H](C(C)C)NC(=O)[C@H](Cc2cccc(Cl)c2)N(C)C(=O)[C@H](C(C)C)NC(=O)[C@H](C)NC(=O)CSC[C@@H](C(=O)NCC(=O)N[C@H](CCC(=O)O)C(=O)NCC(=O)N[C@H](CCC(=O)O)C(=O)N[C@@H](CO)C(=O)N[C@@H](CO)C(=O)N[C@@H](CS)C(N)=O)NC(=O)[C@H](Cc2ccc(O)cc2)N(C)C(=O)[C@H](Cc2ccccc2)NC(=O)[C@@H](CCCNC(=N)N)NC(=O)[C@H](CCCNC(=N)N)NC(=O)[C@H]([C@@H](C)CC)NC1=O [compound 403]

- Kd [4]: < 1 nM
Structure (SMILES): CC[C@H](C)[C@@H]1NC(=O)[C@H](Cc2ccc(OC)cc2)NC(=O)[C@H](Cc2ccc(O)cc2)NC(=O)[C@H](CC(N)=O)NC(=O)[C@H](Cc2c[nH]c3ccccc23)N(C)C(=O)[C@H](C(C)C)NC(=O)[C@H](Cc2cccc(Cl)c2)N(C)C(=O)[C@H](C(C)C)NC(=O)[C@H](C)NC(=O)CSC[C@@H](C(N)=O)NC(=O)[C@H](Cc2ccc(O)cc2)N(C)C(=O)[C@H](Cc2ccccc2)NC(=O)[C@H](CCC(=O)NCCOCCOCCOCCOCCOCCOCCOCCOC)NC(=O)[C@H](CCCNC(=N)N)NC(=O)[C@H]([C@@H](C)CC)NC1=O [compound 384]

- Kd [5]: 1 to 100 nM
Structure (SMILES): CC[C@H](C)[C@@H]1NC(=O)[C@H](Cc2ccc(O)cc2)NC(=O)[C@H](Cc2ccc(O)cc2)NC(=O)[C@H](CC(N)=O)NC(=O)[C@H](Cc2c[nH]c3ccccc23)NC(=O)[C@H](C(C)C)NC(=O)[C@H](Cc2ccccc2)N(C)C(=O)[C@H](C(C)C)NC(=O)[C@H](C)NC(=O)CSC[C@@H](C(=O)NCC(=O)NCCOCCOCCOCCOCCOCCOCCOCCOCCOCCOCCOCCOCCC(=O)N[C@@H](CCCCN=[N+]=[N-])C(N)=O)NC(=O)[C@H](Cc2ccc(O)cc2)N(C)C(=O)[C@H](Cc2ccc(O)cc2)NC(=O)[C@H](CCCNC(=N)N)NC(=O)[C@H](CCCNC(=N)N)NC(=O)[C@H]([C@@H](C)CC)NC1=O [compound 501]

- Kd [5]: 100 to 1000 nM
Structure (SMILES): CC[C@H](C)[C@@H]1NC(=O)[C@H](Cc2ccc(OCCN)cc2)NC(=O)[C@H](Cc2ccc(O)cc2)NC(=O)[C@H](CC(N)=O)NC(=O)[C@H](Cc2c[nH]c3ccccc23)NC(=O)[C@H](C(C)C)NC(=O)[C@H](Cc2ccccc2)N(C)C(=O)[C@H](C(C)C)NC(=O)[C@H](C)NC(=O)CSC[C@@H](C(N)=O)NC(=O)[C@H](Cc2ccc(O)cc2)N(C)C(=O)[C@H](Cc2ccccc2)NC(=O)[C@H](CCCNC(=N)N)NC(=O)C(C)(C)NC(=O)[C@H]([C@@H](C)CC)NC1=O [compound 524]

- Kd [3]: 1 to 100 nM
Structure (SMILES): CC[C@H](C)[C@@H]1NC(=O)[C@H](Cc2ccc(O)cc2)NC(=O)[C@H](C)NC(=O)[C@H](CC(N)=O)NC(=O)[C@H](Cc2c[nH]c3ccccc23)NC(=O)[C@H](C(C)C)NC(=O)[C@H](Cc2ccccc2)N(C)C(=O)[C@H](C(C)C)NC(=O)[C@H](C)NC(=O)CSC[C@@H](C(=O)NCCOCCOCCOCCOCCOCCOCCOCCOCCOCCOCCOCCOCCC(N)=O)NC(=O)[C@H](Cc2ccc(O)cc2)N(C)C(=O)[C@H](Cc2ccc(O)cc2)NC(=O)[C@H](CCCNC(=N)N)NC(=O)[C@H](CCCNC(=N)N)NC(=O)[C@H]([C@@H](C)CC)NC1=O [compound 140] ({CH2CO}-AV[NMeF]VWNAYIIRRY[NMeY]C[PEG12]-NH2; thioether N-15)

- Kd [5]: 100 to 1000 nM
Structure (SMILES): CC[C@H](C)[C@@H]1NC(=O)[C@H](Cc2ccc(O)cc2)NC(=O)[C@H](Cc2ccc(O)cc2)NC(=O)[C@H](CC(N)=O)NC(=O)[C@H](Cc2c[nH]c3ccc(Cl)cc23)NC(=O)[C@H](C(C)C)NC(=O)[C@H](Cc2ccc(F)cc2)N(C)C(=O)[C@H](C(C)C)NC(=O)[C@H](C)NC(=O)CSC[C@@H](C(N)=O)NC(=O)[C@H](Cc2ccc(O)cc2)N(C)C(=O)[C@H](Cc2ccccc2)NC(=O)[C@H](CCCCNC(=O)CCOCCOCCOCCOC)NC(=O)[C@H](CCCNC(=N)N)N(C)C(=O)[C@H]([C@@H](C)CC)NC1=O [compound 489]

- Kd [2]: 1 to 100 nM
Structure (SMILES): CC[C@H](C)[C@@H]1NC(=O)[C@H](Cc2ccc(O)cc2)NC(=O)[C@H](Cc2ccc(O)cc2)NC(=O)[C@H](CC(N)=O)NC(=O)[C@H](Cc2c[nH]c3ccccc23)N(C)C(=O)[C@H](C(C)C)NC(=O)[C@H](Cc2ccccc2)NC(=O)[C@H](C(C)C)NC(=O)[C@H](C)NC(=O)CSC[C@@H](C(=O)NCC(=O)N[C@@H](CO)C(=O)N[C@@H](CO)C(=O)NCC(=O)N[C@@H](CO)C(=O)N[C@@H](CO)C(=O)N[C@@H](CCCCNC(=O)C2CCC(CN3C(=O)C=CC3=O)CC2)C(N)=O)NC(=O)[C@H](Cc2ccc(O)cc2)N(C)C(=O)[C@H](Cc2ccc(O)cc2)NC(=O)[C@H](CCCNC(=N)N)NC(=O)[C@H](CCCNC(=N)N)NC(=O)[C@H]([C@@H](C)CC)NC1=O (some centres unmarked) [compound 197]

- Kd [4]: 1 to 100 nM
Structure (SMILES): CC[C@H](C)[C@@H]1NC(=O)[C@H](Cc2ccc(OC)cc2)NC(=O)[C@H](Cc2ccc(O)cc2)NC(=O)[C@H](CC(N)=O)NC(=O)[C@H](Cc2c[nH]c3ccccc23)N(C)C(=O)[C@H](C(C)C)NC(=O)[C@H](Cc2cccc(Cl)c2)N(C)C(=O)[C@H](C(C)C)NC(=O)[C@H](C)NC(=O)CSC[C@@H](C(N)=O)NC(=O)[C@H](Cc2ccc(O)cc2)N(C)C(=O)[C@H](Cc2ccccc2)NC(=O)[C@@H](CCCNC(=N)N)NC(=O)[C@H](CCCNC(=N)N)NC(=O)[C@H]([C@@H](C)CC)NC1=O [compound 397]

- Kd (surface plasmon resonance, peptide vs hTfR, read-out: KD value for hTfR by SPR (class symbol)): 1 to 100 nM
Structure (SMILES): CC[C@H](C)[C@@H]1NC(=O)[C@H](Cc2ccc(O)cc2)NC(=O)[C@H](Cc2ccc(O)cc2)NC(=O)[C@H](CC(N)=O)NC(=O)[C@H](Cc2cn(CC(=O)O)c3ccccc23)NC(=O)[C@H](C(C)C)NC(=O)[C@H](Cc2cccc(Cl)c2)N(C)C(=O)[C@@H]2CCCC(=O)NCCCCC[C@H](NC(=O)[C@H]([C@@H](C)CC)NC1=O)C(=O)N[C@H](CCCNC(=N)N)C(=O)N[C@@H](Cc1ccccc1)C(=O)N(C)[C@@H](Cc1ccc(O)cc1)C(=O)N[C@H](C(N)=O)CSCC(=O)N[C@@H](C)C(=O)N2 [compound 419] ({CH2CO}-A[Aad][NMePhe(3-Cl)]V[Trp(1-CH2COOH)]NYYII[hLys][dR]F[NMeY]C-NH2; lactam 2-11; thioether N-15)
